These results are taken from ChEMBL document CHEMBL5338706, “Discovery of a potent and selective proteolysis targeting chimera (PROTAC) degrader of NSD3 histone methyltransferase” (Eur J Med Chem, 2022).

Calls of active or inactive are those of the source. No cut-off for these calls is given here.

In one assay the target is T1, Histone-lysine N-methyltransferase NSD3 (Homo sapiens) (UniProt Q9BZ95).
T1 sequence (whole entry): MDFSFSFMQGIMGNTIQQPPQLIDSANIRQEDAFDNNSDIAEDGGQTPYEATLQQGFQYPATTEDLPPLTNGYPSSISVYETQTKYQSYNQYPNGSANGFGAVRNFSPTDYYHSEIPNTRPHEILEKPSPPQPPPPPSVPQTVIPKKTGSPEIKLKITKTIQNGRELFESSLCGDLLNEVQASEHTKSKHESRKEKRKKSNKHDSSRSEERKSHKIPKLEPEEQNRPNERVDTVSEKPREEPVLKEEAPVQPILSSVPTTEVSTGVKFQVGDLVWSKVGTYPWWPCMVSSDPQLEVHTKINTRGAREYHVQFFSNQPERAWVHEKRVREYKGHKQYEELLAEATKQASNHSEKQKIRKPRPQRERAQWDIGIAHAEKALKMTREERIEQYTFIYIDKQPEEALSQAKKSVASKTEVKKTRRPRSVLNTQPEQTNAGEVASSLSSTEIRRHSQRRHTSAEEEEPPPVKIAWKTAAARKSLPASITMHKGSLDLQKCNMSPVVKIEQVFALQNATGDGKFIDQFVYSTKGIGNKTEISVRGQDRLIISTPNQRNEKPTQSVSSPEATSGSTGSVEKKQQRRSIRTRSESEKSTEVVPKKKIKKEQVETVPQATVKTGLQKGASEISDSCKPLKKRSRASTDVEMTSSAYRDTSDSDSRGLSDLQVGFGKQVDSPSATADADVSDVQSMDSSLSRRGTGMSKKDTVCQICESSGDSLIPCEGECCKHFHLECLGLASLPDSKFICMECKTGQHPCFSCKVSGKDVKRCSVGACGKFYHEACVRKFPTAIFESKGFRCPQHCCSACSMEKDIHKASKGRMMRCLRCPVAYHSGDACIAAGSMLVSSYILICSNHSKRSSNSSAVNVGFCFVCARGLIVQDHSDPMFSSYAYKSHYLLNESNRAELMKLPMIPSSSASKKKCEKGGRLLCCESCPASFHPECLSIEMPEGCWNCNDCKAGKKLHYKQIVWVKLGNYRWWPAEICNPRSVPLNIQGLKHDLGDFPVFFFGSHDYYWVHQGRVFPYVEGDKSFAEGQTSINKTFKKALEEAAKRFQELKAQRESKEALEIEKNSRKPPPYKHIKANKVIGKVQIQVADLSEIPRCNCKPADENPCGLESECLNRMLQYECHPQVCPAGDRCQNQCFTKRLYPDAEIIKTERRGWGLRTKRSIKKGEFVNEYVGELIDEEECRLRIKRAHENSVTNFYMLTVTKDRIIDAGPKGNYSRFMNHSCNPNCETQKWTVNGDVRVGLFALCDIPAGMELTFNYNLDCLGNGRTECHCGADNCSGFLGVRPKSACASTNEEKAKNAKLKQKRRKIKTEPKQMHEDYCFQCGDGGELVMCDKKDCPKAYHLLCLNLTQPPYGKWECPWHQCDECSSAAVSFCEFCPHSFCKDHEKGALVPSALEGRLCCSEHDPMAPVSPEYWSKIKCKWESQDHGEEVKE
Put plainly: Induction of NSD3 degradation in human NCI-H1703 cells at 5 uM incubated for 72 hrs by Western blot analysis. Type of assay: cell-based.
Conditions: not given
On the technique in general: Immunoblotting shows a protein as a band on a membrane.
`Cc1cc(CNCCCCCCCCCCCC(=O)N[C@H](C(=O)N2C[C@H](O)C[C@H]2C(=O)N[C@@H](C)c2ccc(-c3scnc3C)cc2)C(C)(C)C)cc(C)c1-c1ncn(C)c1-c1ccnc2cc(F)ccc12`: the NSD3 degradation came to 1.5%.

Regarding `Cc1cc(CNCCN2CCN(CCCC(=O)N[C@H](C(=O)N3C[C@H](O)C[C@H]3C(=O)N[C@@H](C)c3ccc(-c4scnc4C)cc3)C(C)(C)C)CC2)cc(C)c1-c1ncn(C)c1-c1ccnc2cc(F)ccc12`, the NSD3 degradation is 9.1%. With `Cc1cc(CNCCCCN2CCN(CC(=O)N[C@H](C(=O)N3C[C@H](O)C[C@H]3C(=O)N[C@@H](C)c3ccc(-c4scnc4C)cc3)C(C)(C)C)CC2)cc(C)c1-c1ncn(C)c1-c1ccnc2cc(F)ccc12`, the NSD3 degradation was determined as 11.1%. Same read-out and setting: the result for `Cc1cc(CNCCCCCCCCCCCNc2cccc3c2C(=O)N(C2CCC(=O)NC2=O)C3=O)cc(C)c1-c1ncn(C)c1-c1ccnc2cc(F)ccc12` (stereo not drawn) reads 15.6%. Take `Cc1cc(CNCCCCCCCCCCCCCCCC(=O)N[C@H](C(=O)N2C[C@H](O)C[C@H]2C(=O)N[C@@H](C)c2ccc(-c3scnc3C)cc2)C(C)(C)C)cc(C)c1-c1ncn(C)c1-c1ccnc2cc(F)ccc12`: the NSD3 degradation turned out to be 16.4%. As for `Cc1cc(CNCCOCCOCCOCCOCCC(=O)N[C@H](C(=O)N2C[C@H](O)C[C@H]2C(=O)N[C@@H](C)c2ccc(-c3scnc3C)cc2)C(C)(C)C)cc(C)c1-c1ncn(C)c1-c1ccnc2cc(F)ccc12`, the NSD3 degradation was determined as 7.7%. In the case of `Cc1cc(CNCCCCCCCCCCCCCC(=O)N[C@H](C(=O)N2C[C@H](O)C[C@H]2C(=O)N[C@@H](C)c2ccc(-c3scnc3C)cc2)C(C)(C)C)cc(C)c1-c1ncn(C)c1-c1ccnc2cc(F)ccc12`, the NSD3 degradation turned out to be 45.2%.

`Cc1cc(CNCCCCC(=O)N[C@H](C(=O)N2C[C@H](O)C[C@H]2C(=O)N[C@@H](C)c2ccc(-c3scnc3C)cc2)C(C)(C)C)cc(C)c1-c1ncn(C)c1-c1ccnc2cc(F)ccc12`: the NSD3 degradation is -4.2%. Consider `Cc1cc(CNCCCCCCCCC(=O)N[C@H](C(=O)N2C[C@H](O)C[C@H]2C(=O)N[C@@H](C)c2ccc(-c3scnc3C)cc2)C(C)(C)C)cc(C)c1-c1ncn(C)c1-c1ccnc2cc(F)ccc12`, for which the NSD3 degradation came out at 0.7%. Same read-out and setting: the result for `Cc1cc(CNCCCCCCCCCC(=O)N[C@H](C(=O)N2C[C@H](O)C[C@H]2C(=O)N[C@@H](C)c2ccc(-c3scnc3C)cc2)C(C)(C)C)cc(C)c1-c1ncn(C)c1-c1ccnc2cc(F)ccc12` reads 1.2%; that for `Cc1cc(CNCCCCCCC(=O)N[C@H](C(=O)N2C[C@H](O)C[C@H]2C(=O)N[C@@H](C)c2ccc(-c3scnc3C)cc2)C(C)(C)C)cc(C)c1-c1ncn(C)c1-c1ccnc2cc(F)ccc12`, 6.3%; that for `Cc1cc(CNCCCN2CCN(CCCC(=O)N[C@H](C(=O)N3C[C@H](O)C[C@H]3C(=O)N[C@@H](C)c3ccc(-c4scnc4C)cc3)C(C)(C)C)CC2)cc(C)c1-c1ncn(C)c1-c1ccnc2cc(F)ccc12`, 13.8%. Turning to `Cc1cc(CNCCOCCOCCC(=O)N[C@H](C(=O)N2C[C@H](O)C[C@H]2C(=O)N[C@@H](C)c2ccc(-c3scnc3C)cc2)C(C)(C)C)cc(C)c1-c1ncn(C)c1-c1ccnc2cc(F)ccc12`, the NSD3 degradation was -7.2%.

As for `Cc1cc(CNCCCCCCN2CCN(CC(=O)N[C@H](C(=O)N3C[C@H](O)C[C@H]3C(=O)N[C@@H](C)c3ccc(-c4scnc4C)cc3)C(C)(C)C)CC2)cc(C)c1-c1ncn(C)c1-c1ccnc2cc(F)ccc12`, the NSD3 degradation was found to be 37.6%. For the molecule `Cc1cc(CNCCOCCOCCOCCC(=O)N[C@H](C(=O)N2C[C@H](O)C[C@H]2C(=O)N[C@@H](C)c2ccc(-c3scnc3C)cc2)C(C)(C)C)cc(C)c1-c1ncn(C)c1-c1ccnc2cc(F)ccc12`, the NSD3 degradation was found to be 7.4%. Same read-out and setting: the result for `Cc1cc(CNCCCCCCCCCCNc2cccc3c2C(=O)N(C2CCC(=O)NC2=O)C3=O)cc(C)c1-c1ncn(C)c1-c1ccnc2cc(F)ccc12` (stereo not drawn) reads 21%. `Cc1cc(CNCCCCCN2CCN(CC(=O)N[C@H](C(=O)N3C[C@H](O)C[C@H]3C(=O)N[C@@H](C)c3ccc(-c4scnc4C)cc3)C(C)(C)C)CC2)cc(C)c1-c1ncn(C)c1-c1ccnc2cc(F)ccc12`: the NSD3 degradation is 53.5%. `Cc1cc(CNCCCCCCCCCNc2cccc3c2C(=O)N(C2CCC(=O)NC2=O)C3=O)cc(C)c1-c1ncn(C)c1-c1ccnc2cc(F)ccc12` (stereo not drawn): the NSD3 degradation came out at 1.7%.

Take `Cc1cc(CNCCCCCCCC(=O)N[C@H](C(=O)N2C[C@H](O)C[C@H]2C(=O)N[C@@H](C)c2ccc(-c3scnc3C)cc2)C(C)(C)C)cc(C)c1-c1ncn(C)c1-c1ccnc2cc(F)ccc12`: the NSD3 degradation was -2.4%.

Take `Cc1cc(CNCCCCCCCCCCCCNc2cccc3c2C(=O)N(C2CCC(=O)NC2=O)C3=O)cc(C)c1-c1ncn(C)c1-c1ccnc2cc(F)ccc12` (stereo not drawn): the NSD3 degradation stood at 1.5%.

In the case of `Cc1cc(CNCCCCCC(=O)N[C@H](C(=O)N2C[C@H](O)C[C@H]2C(=O)N[C@@H](C)c2ccc(-c3scnc3C)cc2)C(C)(C)C)cc(C)c1-c1ncn(C)c1-c1ccnc2cc(F)ccc12`, the NSD3 degradation is 1.6%. Consider `Cc1cc(CNCCCN2CCN(CCC(=O)N[C@H](C(=O)N3C[C@H](O)C[C@H]3C(=O)N[C@@H](C)c3ccc(-c4scnc4C)cc3)C(C)(C)C)CC2)cc(C)c1-c1ncn(C)c1-c1ccnc2cc(F)ccc12`, for which the NSD3 degradation was determined as 25.8%. Take `Cc1cc(CNCCCCCCCCCCCCC(=O)N[C@H](C(=O)N2C[C@H](O)C[C@H]2C(=O)N[C@@H](C)c2ccc(-c3scnc3C)cc2)C(C)(C)C)cc(C)c1-c1ncn(C)c1-c1ccnc2cc(F)ccc12`: the NSD3 degradation is 38%. As to `Cc1cc(CNCCCCCCCCCCCCCCC(=O)N[C@H](C(=O)N2C[C@H](O)C[C@H]2C(=O)N[C@@H](C)c2ccc(-c3scnc3C)cc2)C(C)(C)C)cc(C)c1-c1ncn(C)c1-c1ccnc2cc(F)ccc12`, the NSD3 degradation amounted to 33.1%. As for `Cc1cc(CNCCOCCOCCOCC(=O)N[C@H](C(=O)N2C[C@H](O)C[C@H]2C(=O)N[C@@H](C)c2ccc(-c3scnc3C)cc2)C(C)(C)C)cc(C)c1-c1ncn(C)c1-c1ccnc2cc(F)ccc12`, the NSD3 degradation worked out at 10.7%.

A further assay addresses T1, Histone-lysine N-methyltransferase NSD3 (Homo sapiens). Put plainly: Induction of NSD3 degradation in human NCI-H1703 cells at upto 9 uM incubated for 72 hrs by Western blot analysis.
Conditions: not given
Type of assay: cell-based.
Turning to `Cc1cc(CN)cc(C)c1-c1ncn(C)c1-c1ccnc2cc(F)ccc12`, the outcome was inactive.

For the next assay, the system named is NCI-H1703. Kind of assay: Antiproliferative activity against human NCI-H1703 cells at upto 10 uM incubated for 6 days by CCK-8 method. Type of assay: functional, cell-based. Particulars: time 6.0 day. A general note: Tetrazolium dyes change colour on reduction, which living cells bring about.
Regarding `Cc1cc(CN)cc(C)c1-c1ncn(C)c1-c1ccnc2cc(F)ccc12`, the outcome was inactive.

The subject of the next assay is A549. Put plainly: Antiproliferative activity against human A549 cells at upto 10 uM incubated for 3 days by CCK-8 method. Type of assay: functional, cell-based. As to conditions: time 3.0 day.
For the molecule `Cc1cc(CN)cc(C)c1-c1ncn(C)c1-c1ccnc2cc(F)ccc12`, the result was inactive.
